Results from paper PMC6095626, “Screening of the Pathogen Box for inhibitors with dual efficacy against Giardia lamblia and Cryptosporidium parvum” (PLoS Neglected Tropical Diseases, 2018).

How the values were obtained:
[1] = system: G. lamblia trophozoites (luciferase expressing, WBC6); test: microbe, parasite or virus in culture; assay type: cell-based, Giardia lamblia; conditions: for Giardia (16 uM) Mean % inhibition: initial Pathogen Box screen, single concentration 16 µM, inhibition compared to DMSO wells
Procedure: Trophozoites were harvested by chilling cultures on ice for 30 minutes and plated by adding 150 μL per well at a concentration of 250,000 cells/mL. Metronidazole (Sigma, St. Louis, MO) was used as a control and was serially diluted 1:2 from 40 μM to 0.04 μM and 150 μL was added to the 150 μL of the G. lamblia trophozoites. Plates were covered in plastic low-evaporation lids, sealed in individual anaerobic BD GasPak Bio-Bags (Becton Dickinson, San Jose, CA) and incubated at 37 °C for 24 hours. […] A duplicate plate was concurrently set up and assayed using a MOXI Z Mini Automated Cell Counter Kit (Orflo, Ketchum, ID). Results obtained from the bioluminescence assay and the MOXI counter data were compared to evaluate their correlation to each another. Albendazole (Sigma, St. Louis, MO), an alternative giardiasis therapeutic, was assayed in concentrations from 4 μM to 0.004 μM with only the luciferase expressing G. lamblia cells. […]

[2] = system: C. parvum (UGA1 Nluc expressing strain in HCT-8 cells); test: microbe, parasite or virus in culture; assay type: cell-based, Cryptosporidium parvum; conditions: for Crypto (10 uM) Mean % inhibition: initial Pathogen Box screen, single concentration 10 µM, inhibition compared to DMSO wells
Procedure: Growth inhibition and EC50 determination assays were performed using UGA1 Nluc expressing C. parvum strain in HCT-8 cells (ATCC^©, Manassas, VA) as previously described. HCT-8 cells were inoculated onto 96-well plates and allowed to grow for 48 hours to 90–100% confluence and then treated with single concentration (10 μM) or serially diluted compounds prior to oocyst infection. C. parvum oocysts were incubated for 10 minutes in 10% bleach at room temperature and then washed with DPBS. […] The cell monolayers were lysed for 1 hour before adding Nano-Glo® luciferase reagent (Promega, Madison, WI), and measuring relative luminescence units (RLU) in an EnVision Plate Reader (Perkin Elmer, Waltham, MA). Several parameters, including reproducibility and reliability, were previously evaluated to optimize this assay for low and high-throughput (HTP) screening of small molecule compounds against C. parvum. EC50 values were calculated using Prism 7 software (GraphPad Software, San Diego, CA).
C. parvum screening against the Pathogen Box compounds was performed as previously described starting at a concentration of 10 μM [23].

O=C1O[C@@H](COc2ccon2)CN1c1cc(F)c(C2=CCN(Cc3ccccc3)CC2)c(F)c1 [MMV687813]
Giardia (16 uM) Mean % inhibition [1]: 32% | Crypto (10 uM) Mean % inhibition [2]: 40%

NC(=O)c1cc(-c2ccsc2)ccc1OCCOc1ccccc1 [MMV687138]
Giardia (16 uM) Mean % inhibition [1]: X* (Mean or standard deviation are negative but not significantly different from the control to be a growth promoter) | Crypto (10 uM) Mean % inhibition [2]: X* (Mean or standard deviation are negative but not significantly different from the control to be a growth promoter)

CCN(CC)C(=O)N1CCN(C)CC1 [MMV002816]
Giardia (16 uM) Mean % inhibition [1]: 29% | Crypto (10 uM) Mean % inhibition [2]: X* (Mean or standard deviation are negative but not significantly different from the control to be a growth promoter)

O=C(Nc1n[nH]c(=S)s1)c1cc(Br)ccc1Cl [MMV676492]
Giardia (16 uM) Mean % inhibition [1]: X* (Mean or standard deviation are negative but not significantly different from the control to be a growth promoter) | Crypto (10 uM) Mean % inhibition [2]: 57%

O=C(N[C@H](Cc1ccccc1)C(=O)Nc1ccccc1N1CCOCC1)c1cccs1 [MMV688845]
Giardia (16 uM) Mean % inhibition [1]: 25% | Crypto (10 uM) Mean % inhibition [2]: 77%

CN(C)c1cc(NC(=O)Nc2ccccc2)c2ccccc2n1 [MMV006901]
Giardia (16 uM) Mean % inhibition [1]: 49% | Crypto (10 uM) Mean % inhibition [2]: X* (Mean or standard deviation are negative but not significantly different from the control to be a growth promoter)

Cc1cc(NC(=O)c2ccc(S(=O)(=O)N(Cc3ccccc3)C(C)C)cc2)no1 [MMV007133]
Giardia (16 uM) Mean % inhibition [1]: 11% | Crypto (10 uM) Mean % inhibition [2]: X* (Mean or standard deviation are negative but not significantly different from the control to be a growth promoter)

O=C(c1ccc(NCCO)cc1)C1C[C@H]1c1ccc(Cl)cc1 (some centres unmarked) [MMV676877]
Giardia (16 uM) Mean % inhibition [1]: 8% | Crypto (10 uM) Mean % inhibition [2]: 70%

c1ccc(-c2nc(NC3CCCCC3)cc(C3CC3)n2)nc1 [MMV021013]
Giardia (16 uM) Mean % inhibition [1]: 65% | Crypto (10 uM) Mean % inhibition [2]: 92%

Cc1cccc(Cn2ccc(NC(=O)c3ccc4c(c3)OCO4)n2)c1 [MMV676386]
Giardia (16 uM) Mean % inhibition [1]: 57% | Crypto (10 uM) Mean % inhibition [2]: 53%

COc1ccc(-c2nc(-c3cccc(NC(=O)Cc4ccc(F)cc4)c3)no2)cc1OC [MMV676571]
Giardia (16 uM) Mean % inhibition [1]: 6% | Crypto (10 uM) Mean % inhibition [2]: 84%

CCOc1ccccc1C(=O)Nc1cccc(-c2nc3ncccn3c2C)c1 [MMV019790]
Giardia (16 uM) Mean % inhibition [1]: X* (Mean or standard deviation are negative but not significantly different from the control to be a growth promoter) | Crypto (10 uM) Mean % inhibition [2]: X* (Mean or standard deviation are negative but not significantly different from the control to be a growth promoter)

Cc1cc(OCC(=O)NCc2ccccc2)c2cc(Br)ccc2n1 [MMV687747]
Giardia (16 uM) Mean % inhibition [1]: 32% | Crypto (10 uM) Mean % inhibition [2]: 54%

CNC(=O)CNc1nc(-c2ccccn2)nc2scc(-c3ccccc3)c12 [MMV1029203]
Giardia (16 uM) Mean % inhibition [1]: 4% | Crypto (10 uM) Mean % inhibition [2]: 21%

CN1CCCN(C(c2ccccc2)c2ccc(Cl)cc2)CC1 (centres unmarked) [MMV004168]
Giardia (16 uM) Mean % inhibition [1]: 27% | Crypto (10 uM) Mean % inhibition [2]: 56%

CCNC(=O)C(C)Nc1nc(-c2cccnc2)nc2sc(C)c(C)c12 (centres unmarked) [MMV1037162]
Giardia (16 uM) Mean % inhibition [1]: 11% | Crypto (10 uM) Mean % inhibition [2]: 20%

O=C(C1CCN(c2cc(-n3cccc3)ncn2)CC1)N1CCc2ccccc2C1 [MMV687172]
Giardia (16 uM) Mean % inhibition [1]: X* (Mean or standard deviation are negative but not significantly different from the control to be a growth promoter) | Crypto (10 uM) Mean % inhibition [2]: 48%

c1csc(-c2cnc3sc(NCC4CCOCC4)nn23)c1 [MMV010764]
Giardia (16 uM) Mean % inhibition [1]: X* (Mean or standard deviation are negative but not significantly different from the control to be a growth promoter) | Crypto (10 uM) Mean % inhibition [2]: X* (Mean or standard deviation are negative but not significantly different from the control to be a growth promoter)

O=C(NCCN1CCCC1)c1cc(NCCN2CCOCC2)nc2ccc(Cl)cc12 [MMV634140]
Giardia (16 uM) Mean % inhibition [1]: 27% | Crypto (10 uM) Mean % inhibition [2]: X* (Mean or standard deviation are negative but not significantly different from the control to be a growth promoter)

COc1ccc(C(=N)N)cc1-c1cn(-c2ccc(C(=N)N)cc2)nn1 [MMV675998]
Giardia (16 uM) Mean % inhibition [1]: 30% | Crypto (10 uM) Mean % inhibition [2]: X* (Mean or standard deviation are negative but not significantly different from the control to be a growth promoter)

COc1cc(N[C@@H](C)CCCN)c2ncccc2c1 [MMV000023]
Giardia (16 uM) Mean % inhibition [1]: 47% | Crypto (10 uM) Mean % inhibition [2]: 14%

O=C1O[C@@H](CO)CN1c1cc(F)c(C2=CCN(Cc3ccccc3)CC2)c(F)c1 [MMV687729]
Giardia (16 uM) Mean % inhibition [1]: 25% | Crypto (10 uM) Mean % inhibition [2]: 74%

CCn1cnc2c(Nc3cc(F)cc(F)c3)nc(C#N)nc21 [MMV676881]
Giardia (16 uM) Mean % inhibition [1]: 9% | Crypto (10 uM) Mean % inhibition [2]: 53%

CS(=O)(=O)Cc1nc2ccccc2oc1=O [MMV553002]
Giardia (16 uM) Mean % inhibition [1]: 12% | Crypto (10 uM) Mean % inhibition [2]: 74%

COC(=O)Nc1nc2ccc(C(=O)c3ccccc3)cc2[nH]1 [MMV003152, mebendazole, reference compound]
G. lamblia inhibition of parasite growth in the initial screen ([1]; 16 μM, 24 hours): did not show up in the screen | inhibition at 16 µM ([1]; Giardia duodenalis, read-out: Giardia (16 uM) Mean % inhibition): 26% | inhibition at 10 µM ([2]; Cryptosporidium parvum, HCT-8, read-out: Crypto (10 uM) Mean % inhibition): 91%

Cc1nn(Cc2ccccc2)c(Cl)c1C(=O)NC1CCCCCC1 [MMV063404]
Giardia (16 uM) Mean % inhibition [1]: 55% | Crypto (10 uM) Mean % inhibition [2]: 75%

Cc1ccc(S(=O)(=O)Nc2ccc(CN3CCN(C(=O)c4cccc(C#N)c4)CC3)cc2)cc1 [MMV689028]
Giardia (16 uM) Mean % inhibition [1]: 56% | Crypto (10 uM) Mean % inhibition [2]: 58%

CC1=Nc2ccc(Cl)cc2C(c2ccccc2)N1CCNC(=O)CN(C)C (centres unmarked) [MMV688410]
Giardia (16 uM) Mean % inhibition [1]: 20% | Crypto (10 uM) Mean % inhibition [2]: 62%

O=C(Nc1ccnc(-c2cccnc2)n1)c1cc(C(F)(F)F)cc(C(F)(F)F)c1 [MMV019838]
Giardia (16 uM) Mean % inhibition [1]: 16% | Crypto (10 uM) Mean % inhibition [2]: 71%

Cc1cccc(NC(=O)c2cc(S(=O)(=O)N(C)c3ccc(F)cc3)ccc2Cl)n1 [MMV676528]
Giardia (16 uM) Mean % inhibition [1]: X* (Mean or standard deviation are negative but not significantly different from the control to be a growth promoter) | Crypto (10 uM) Mean % inhibition [2]: 80%

Cc1nc2ccccn2c1C(=O)NCc1ccc(Cl)cc1 [MMV012074]
Giardia (16 uM) Mean % inhibition [1]: 14% | Crypto (10 uM) Mean % inhibition [2]: 57%

CC(C(=O)N1CCCC1)N1CCN(S(=O)(=O)c2ccc(C(C)(C)C)cc2)CC1 (centres unmarked) [MMV020291]
Giardia (16 uM) Mean % inhibition [1]: 13% | Crypto (10 uM) Mean % inhibition [2]: 61%

O=C(NC1CCN(c2ccnc3ccccc23)C1)c1cccc(C(F)(F)F)c1 (centres unmarked) [MMV023388]
Giardia (16 uM) Mean % inhibition [1]: 86% | Crypto (10 uM) Mean % inhibition [2]: X* (Mean or standard deviation are negative but not significantly different from the control to be a growth promoter)

C[C@H](c1ccc2c(c1)CCCC2)N(C)c1ncc2c(N)nc(N)nc2n1 [MMV690103]
Giardia (16 uM) Mean % inhibition [1]: 49% | Crypto (10 uM) Mean % inhibition [2]: 78%

Nc1ncnc2c1ncn2C[C@@H](O)[C@@H](O)C(=O)O [MMV689255]
Giardia (16 uM) Mean % inhibition [1]: 33% | Crypto (10 uM) Mean % inhibition [2]: 46%

CCCCOC(=O)Nc1cc2[nH]c(C3CCCCC3)nc2cc1N1CCCC1 [MMV687730]
Giardia (16 uM) Mean % inhibition [1]: 24% | Crypto (10 uM) Mean % inhibition [2]: 61%

CC(C)(C)c1cc(C(=O)Nc2cccnc2)cc(C(=O)Nc2cccnc2)c1 [MMV020982]
Giardia (16 uM) Mean % inhibition [1]: 10% | Crypto (10 uM) Mean % inhibition [2]: 67%

Nc1ccc(C(=O)Nc2ccc(-c3nc4ccccc4o3)cc2)cc1 [MMV007920]
Giardia (16 uM) Mean % inhibition [1]: 60% | Crypto (10 uM) Mean % inhibition [2]: 63%

CC(=O)NCC1CN(c2ccc(-c3ccc(CO)cc3)c(F)c2)C(=O)O1 (centres unmarked) [MMV688508]
Giardia (16 uM) Mean % inhibition [1]: X* (Mean or standard deviation are negative but not significantly different from the control to be a growth promoter) | Crypto (10 uM) Mean % inhibition [2]: X* (Mean or standard deviation are negative but not significantly different from the control to be a growth promoter)

CC(C)(C)CN1C(=O)C(c2ccccc2)(c2ccccc2)N=C1N [MMV026550]
Giardia (16 uM) Mean % inhibition [1]: 35% | Crypto (10 uM) Mean % inhibition [2]: X* (Mean or standard deviation are negative but not significantly different from the control to be a growth promoter)

COc1ccc(-c2cnc3ccc(NCc4ccc(S(N)(=O)=O)cc4)nn23)cn1 [MMV010545]
Giardia (16 uM) Mean % inhibition [1]: X* (Mean or standard deviation are negative but not significantly different from the control to be a growth promoter) | Crypto (10 uM) Mean % inhibition [2]: X* (Mean or standard deviation are negative but not significantly different from the control to be a growth promoter)
